The record followed here is EP4410314A1, “COMBINATION THERAPY COMPRISING ANTI-CD22 ANTIBODY-DRUG CONJUGATE AND IRAK1 INHIBITOR” (ADC Therapeutics SA, priority 2023, dated 2024).

The test system of test [1] is SUP-T1. In words: In vitro cytotoxicity, SUP-T1. Format: cell-based, human. The following applies: SUP-T1 (T-LL), CD22-negative; mean ± SEM.
The subject of test [2] is KARPAS-299. In words: In vitro cytotoxicity, KARPAS-299. The following applies: KARPAS-299 (ALCL), CD22-negative; mean ± SEM. Format: cell-based, human.
In test [3] the test system is MZL. Kind of test: In vitro cytotoxic activity, lymphoma cell line panel: MZL. Format: cell-based, human. The conditions noted are these: 6 cell lines, read-out: Median IC50.
The test system of test [4] is HL. Kind of test: In vitro cytotoxic activity, lymphoma cell line panel: HL. The following applies: 3 cell lines, read-out: Median IC50. Format: cell-based, human.
In test [5] the test system is T-cell lymphomas. In words: In vitro cytotoxic activity, lymphoma cell line panel: T-cell lymphomas. The conditions noted are these: 9 cell lines, read-out: Median IC50. Format: cell-based, human.
Test [6] has as its system CD22-negative KARPAS-299 cells. In words: Bystander killing by conditioned medium transfer. The conditions noted are these: for percentage survival of KARPAS-299 cells: 96 hours incubation. Format: cell-based, human. Here is the method: The ADCT-602-conditioned medium elicited a bystander effect after 1 day of pretreatment, as shown by a decrease in the percentage survival in the conditioned medium-treated KARPAS-299 cells, compared with the nonconditioned medium (97% to 78%, P = .001). The bystander effect increased after 2 to 3 days of preincubation in Ramos cells, as shown by a further decrease in the percentage of cell survival compared with the nonconditioned medium (66% and 62%, P < .0001).

Test [7] has as its system CD22-expressing Ramos cells. In words: Cell surface binding, internalization and LAMP-1 colocalization. Format: cell-based, human.
The subject of test [8] is Ramos xenograft. Kind of test: SC Ramos xenograft. Format: in vivo, mice. From the text: Ramos, WSU-DLCL2, and KARPAS-299 xenografts were established in 8- to 10-week-old female Fox Chase mice with severe combined immunodeficiency (Charles River Laboratories) by implanting 10^7 cells subcutaneously (SC) into their flanks. When group mean tumor volumes reached approximately 116 to 132 mm^3, mice were randomly allocated into groups to receive the test agent or vehicle. Each animal was euthanized when its tumor reached the end point volume or at the study end. The time to end point (TTE) for analysis was calculated for each mouse by the following equation: TTE (days) = ([log10(end point volume−intercept^(*)]/slope^(*)) [formula] where the * indicates the slope of the line obtained by linear regression of a log-transformed tumor growth data set.
The log-rank test was used to analyze the significance of differences in TTE between the 2 groups. For the disseminated xenografts model, 10^7 REH cells were inoculated intravenously (IV) into 5- to 8-week-old female NOG mice (Taconic Biosciences). Test compounds were administered IV 4 days after tumor cell inoculation. Individual mice were euthanized, and an autopsy was performed when hind leg paralysis (a sign of leukemia development) occurred and/or the body weight decreased ≥20%. The study was terminated on day 62. The log-rank test was used to determine the significance of the differences in overall survival.

In test [9] the test system is B-cell lymphomas. The following applies: read-out: Median IC50, 48 cell lines.
Setting [10] is: single dose 1 mg/kg, end of the study (day 60).

By IC50 is commonly meant the concentration that gives 50% inhibition. “ADCT-602: novel ADC targeting CD22 that consists of humanized monoclonal antibody hLL2-C220, sitespecifically conjugated to the pyrrolobenzodiazepine (PBD) dimer-based payload tesirine”: the half-maximal inhibitory concentration (IC50) in test [1] was determined as 9.34 ± 1.02 nM; in [2] it was 51.7 ± 3.86 nM; in test [3], 0.0625 nM; in test [4], 4.5 nM; in [5] it was 1.85 nM; in test [9] it was 0.2 nM. Besides, the “change in percentage of cell survival compared with the nonconditioned medium” value in [6] (conditioned medium from ADCT-602-treated, CD22-negative NCI-N87 cells) is listed as “no significant change”. Also, the “percentage survival of KARPAS-299 cells” value came out at 78% in test [6] (conditioned medium from Ramos cells treated with ADCT-602 for 1 day); 66% in test [6] (conditioned medium from Ramos cells treated with ADCT-602 for 2 days); 62% in [6] (conditioned medium from Ramos cells treated with ADCT-602 for 3 days); 97% in test [6] (nonconditioned medium, comparator for 1 day pretreatment). Moreover, the “internalization and trafficking to lysosomes” value in test [7] (37°C, 1- and 2-hour time points) is “cellular internalization and colocalization of ADCT-602 with LAMP-1”. Moreover, the “residual ADC staining” value in test [7] (24 hours) is “no residual ADC staining”. The “cell surface (membrane) binding” value in test [7] (T 0 hours) is recorded as “prominent cell surface binding”. Besides, the CRs in test [8] (setting [10]) is on record as 10/10. The tumor-free survivors in test [8] (setting [10]) is listed as 9/10. Also, the “antitumor activity compared with the vehicle and the isotype control ADC” value in test [8] (single dose at 0.3 and 1 mg/kg) was “specific and dose-dependent antitumor activity”.
